Experimental data reported in PubChem BioAssay AID1963833 (Molecular Pharmacology Branch, DTP, NCI, 2024).

Test system: 883617-216-R-J1-PDC complex spheroid viability
Test: Anticancer human tumor 883617-216-R-J1-PDC patient-derived bladder carcinoma cell line growth inhibition [POLQ]
Conditions: for IC50: curve of first compound; for viability, T/C: stronger effect = lower value; active = viability on the fitted dose curve at most 10% of control; inactive = the rest
Experimental: Multicellular complex tumor spheroid response to Polymerase (POL) inhibitors (novobiocin, ART-558, RP6685) in combination with a variety of drugs and investigational agents in selected tumor cell lines
The POL inhibitors (novobiocin, ART-558, and RP6685) were evaluated both individually and in combination with standard of care and investigational anticancer small molecules within a complex spheroid model of solid tumors. . Complex spheroids include a stromal component modeled by human endothelial cells (HUVEC) and fibroblasts modeled by human mesenchymal stem cells (MSCs). The concentration ranges selected for each drug and investigational agent were based upon clinically achievable concentrations if the clinical Cmax of the agent was known.
Compounds. The drugs and investigational agents: novobiocin (NSC847541), ART-558 (NSC835418), RP-6685 (NSC848927), peposertib (NSC802822), ceralasertib (NSC780249), elimusertib (NSC800525), camonsertib (NSC841442), AZD-1390 (NSC803789), olaparib (NSC753686), talazoparib (NSC767125), rucaparib (NSC756644), sotorasib (NSC818433), MRTX-1133 (NSC836407), SN-38 (NSC673596), topotecan (NSC609699), epotoside (NSC141540), doxorubicin (NSC123127), gemcitabine (NSC613327), 5-fluorouracil (NSC19893), paclitaxel (NSC125973), vemurafenib (NSC761431), MSA-2 (NSC828583), SN-011 (NSC837082), adavosertib (NSC754352), prexasertib (NSC758257), carboplatin (NSC241240) and oxaliplatin (NSC266046), were obtained from the National Cancer Institute (NCI) Developmental Therapeutics Program Chemical Repository (21). The FDA-approved anticancer drug set is available from the Developmental Therapeutics Program at https://dtp.cancer.gov/organization/dscb/obtaining/. […] The stock solutions were prepared in dimethyl sulfoxide (DMSO, Sigma-Aldrich, St. Louis, MO, cat. D2650), except for the platinum compounds which were prepared in saline (Quality Biological, Gaithersburg, MD, cat. 114-055-101), at 800-fold the tested concentration and stored at -70 degrees C prior to their use. All drugs and investigational agents were tested over a range starting from a high concentration at or near the clinical Cmax and decreasing in half-log increments. If the clinical Cmax for an agent had not been determined, the highest concentration tested was 10 microM, except for SN-38, which was tested at a high concentration of 1 microM.
Cell Culture. All cells were maintained in an incubator at 37 degrees C and 5% CO2 with 95% humidity. The PDC lines were cultured according to standard operating procedures established by the NCI PDMR (https://pdmr.cancer.gov). Table 3 of the manuscript, lists the cell lines along with the number of the three cell types plated to form the mct-spheroids and media for tumor cell growth. After thawing, all PDC lines, except 997537-175-T-J1-PDC and 415267-285-R-J2-PDC, were cultured in Matrigel-coated flasks prepared with a working solution of 1X Ham's F-12 nutrient mix, without supplementation (Thermo Fisher Scientific, cat. 11765054), 100 U/mL penicillin-streptomycin (Thermo Fisher Scientific, cat. 15140122), and 2.5% Matrigel (Corning Inc., Corning, NY, cat. 354248) for the first three passages. The two PDC lines 997537-175-T-J1-PDC and 415267-285-R-J2-PDC were cultured on uncoated flasks. The 857933-349-R-J2-PDC line was cultured in 6C/Colon 1B media containing advanced DMEM/F-12 (Thermo Fisher Scientific, cat. 12634028), 10 mM HEPES (Thermo Fisher Scientific, cat. 15630080), 1X GlutaMAX supplement (Thermo Fisher Scientific, cat. 35050061), 0.1 mg/mL primocin (InvivoGen, San Diego, CA, cat. ant-pm-2), 10% defined fetal bovine serum, heat inactivated (HyClone Laboratories Inc., Logan, UT, cat. SH30070.03HI), 50% L-WRN conditioned media (ATCC, cat. CRL-3276), 1.25 mM N-Acetyl-L-cysteine (Sigma-Aldrich, cat. A9165), 10 mM nicotinamide (Sigma-Aldrich, cat. N0636), 1X B-27 supplement (Thermo Fisher Scientific, cat. 17504044), 1X N-2 supplement (Thermo Fisher Scientific, cat. […]
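Note: spheroids exposed to compounds for seven days before readout.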

CCc1c2c(nc3ccc(O)cc13)-c1cc3c(c(=O)n1C2)COC(=O)[C@]3(O)CC + Cc1cccc(N(C)C(=O)C2C(O)CCN2c2nc(C)cc(C(F)(F)F)c2C#N)c1
84.7 nM: IC50 (second compound 0.316 µM)
inactive: viability, T/C (second compound 0.0316 µM, first compound 0.00316 µM) 59.4% | viability, T/C (second compound 0.0316 µM, first compound 0.01 µM) 58.6% | viability, T/C (second compound 0.0316 µM, first compound 0.0316 µM) 52.8% | viability, T/C (second compound 0.0316 µM, first compound 0.1 µM) 52% | viability, T/C (second compound 0.0316 µM, first compound 0.316 µM) 34.2% | viability, T/C (second compound 0.0316 µM, first compound 1 µM) 21.2% | viability, T/C (second compound 0.1 µM, first compound 0.00316 µM) 71.4% | viability, T/C (second compound 0.1 µM, first compound 0.01 µM) 60.8% | viability, T/C (second compound 0.1 µM, first compound 0.0316 µM) 57.9% | viability, T/C (second compound 0.1 µM, first compound 0.1 µM) 46.9% | viability, T/C (second compound 0.1 µM, first compound 0.316 µM) 37.7% | viability, T/C (second compound 0.1 µM, first compound 1 µM) 25% | viability, T/C (second compound 0.316 µM, first compound 0.00316 µM) 60.1% | viability, T/C (second compound 0.316 µM, first compound 0.01 µM) 66.2% | viability, T/C (second compound 0.316 µM, first compound 0.0316 µM) 55% | viability, T/C (second compound 0.316 µM, first compound 0.1 µM) 49.6% | viability, T/C (second compound 0.316 µM, first compound 0.316 µM) 32.6% | viability, T/C (second compound 0.316 µM, first compound 1 µM) 17.6% | viability, T/C (second compound 1 µM, first compound 0.00316 µM) 65.1% | viability, T/C (second compound 1 µM, first compound 0.01 µM) 61.7% | viability, T/C (second compound 1 µM, first compound 0.0316 µM) 60.8% | viability, T/C (second compound 1 µM, first compound 0.1 µM) 41.3% | viability, T/C (second compound 1 µM, first compound 0.316 µM) 33.6% | viability, T/C (second compound 1 µM, first compound 1 µM) 20.5% | viability, T/C (second compound 3.16 µM, first compound 0.00316 µM) 71.6% | viability, T/C (second compound 3.16 µM, first compound 0.01 µM) 59.7% | viability, T/C (second compound 3.16 µM, first compound 0.0316 µM) 54.8% | viability, T/C (second compound 3.16 µM, first compound 0.1 µM) 45.3% | viability, T/C (second compound 3.16 µM, first compound 0.316 µM) 40.6% | viability, T/C (second compound 3.16 µM, first compound 1 µM) 22.4% | viability, T/C (second compound 10 µM, first compound 0.00316 µM) 79.8% | viability, T/C (second compound 10 µM, first compound 0.01 µM) 70.5% | viability, T/C (second compound 10 µM, first compound 0.0316 µM) 62.1% | viability, T/C (second compound 10 µM, first compound 0.1 µM) 49.1% | viability, T/C (second compound 10 µM, first compound 0.316 µM) 44.9% | viability, T/C (second compound 10 µM, first compound 1 µM) 13.5%
62.7 nM: IC50 (second compound 1 µM)
59.9 nM: IC50 (second compound 3.16 µM)
125 nM: IC50 (second compound 10 µM)
69.4 nM: IC50 (second compound 0.1 µM)
101 nM: IC50 (second compound 0.0316 µM)
